The values below come from patent US12195482B1 (Arcus Biosciences, Inc., priority 2022, dated 2025).

Molecules are shown by their SMILES. Some results are limits rather than exact numbers.

In one assay the target is T1, Axl (Homo sapiens, UniProt P30530).
T1 sequence (P30530 26-894): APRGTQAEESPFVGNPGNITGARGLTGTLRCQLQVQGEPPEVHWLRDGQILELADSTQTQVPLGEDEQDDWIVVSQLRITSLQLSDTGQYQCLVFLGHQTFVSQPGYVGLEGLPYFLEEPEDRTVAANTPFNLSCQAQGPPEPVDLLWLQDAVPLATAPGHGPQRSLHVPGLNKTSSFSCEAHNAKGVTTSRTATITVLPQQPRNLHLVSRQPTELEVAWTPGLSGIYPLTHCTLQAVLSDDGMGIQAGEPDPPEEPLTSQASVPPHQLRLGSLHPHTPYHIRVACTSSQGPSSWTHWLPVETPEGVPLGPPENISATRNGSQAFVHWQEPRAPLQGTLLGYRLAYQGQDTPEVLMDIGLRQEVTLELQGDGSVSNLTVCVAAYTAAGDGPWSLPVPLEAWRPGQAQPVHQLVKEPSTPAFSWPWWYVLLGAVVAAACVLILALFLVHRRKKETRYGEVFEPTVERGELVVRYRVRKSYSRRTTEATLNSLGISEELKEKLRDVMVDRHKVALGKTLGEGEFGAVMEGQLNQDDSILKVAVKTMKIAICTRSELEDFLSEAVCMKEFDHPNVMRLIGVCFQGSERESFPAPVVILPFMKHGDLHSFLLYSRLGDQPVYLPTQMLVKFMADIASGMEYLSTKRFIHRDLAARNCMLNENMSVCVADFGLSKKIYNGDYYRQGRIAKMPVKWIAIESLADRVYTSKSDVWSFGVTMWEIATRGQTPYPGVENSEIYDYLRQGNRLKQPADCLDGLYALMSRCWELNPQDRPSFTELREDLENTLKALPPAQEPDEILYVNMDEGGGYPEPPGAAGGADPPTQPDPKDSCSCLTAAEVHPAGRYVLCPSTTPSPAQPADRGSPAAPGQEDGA
The assay can be described thus: Biochemical potency, HTRF KinEASE-TK kinase assay. The note with it: 5 nM AXL, 700 μM ATP. On the set-up: purchased Invitrogen. In a few lines: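 Compounds preincubated 1 h at RT with enzyme in 50 mM HEPES pH 7.4, 10 mM MgCl2, 0.01% BSA, 1 mM DTT; reactions then ran 2 h at RT with 5 nM AXL or 1 nM TYRO3/MER, 800 nM TK substrate-biotin, 700 μM ATP, 1% DMSO. HTRF 665/620 ratio read; percent activity calculated.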
In general terms: TR-FRET usually uses a lanthanide donor and a delayed reading to cut background.

For a further assay, the target named is T2, p-AXL (Homo sapiens, UniProt P30530).
T2 construct: expressed in transfected cells; host or cells: HEK293T
T2 sequence (P30530 26-894): T1 sequence (P30530 26-894)
The assay can be described thus: Axl phosphorylation inhibition ELISA in HEK293T cells transfected with NanoLuc-tagged AXL. The note with it: 1 h compound incubation, media (OptiMEM). It is filed as cell-based. In a few lines:
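HEK293T cells transiently transfected one day earlier with NanoLuc-tagged AXL were exposed to 22-point 2-fold compound dilutions for 1 h at 37° C (70,000 cells/well), then lysed. Lysates captured on anti-phospho-tyrosine coated plates for 2 h; bound p-AXL read by NanoLuc luminescence; IC50 from 4-parameter logistic fit.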
(An ELISA detects its analyte on a solid surface through an enzyme-linked reagent.)

In general, IC50 refers to the concentration needed to halve the response being measured. Read a high IC50 as a need for much substance. Consider `Cc1ccc(C(N)=O)nc1-c1ccc(-c2c[nH]c3ncc(-c4ccc5c(c4)CC[C@@H](N4C6COCC4C6)CC5)cc23)cc1` [Example 76, 5-Methyl-6-(4-{5-[(7S)-7-{3-oxa-6-azabicyclo[3.1.1]heptan-6-yl}-6,7,8,9-tetrahydro-5H-benzo[7]annulen-2-yl]-1H-pyrrolo[2,3-b]pyridin-3-yl}phenyl)pyridine-2-carboxamide], for which the IC50 against Axl and on p-AXL was less than 100 nM throughout.

In the case of `Cn1ncnc1-c1ccc(-c2n[nH]c3ncc(-c4ccc5c(c4)CC[C@@H](N[C@H]4CCCOC4)CC5)cc23)cc1` [Example 134], the IC50 at Axl and against p-AXL was less than 100 nM in each case.

Consider `COC[C@H]1CCN([C@H]2CCc3ccc(-c4cnc5[nH]cc(-c6ccc(-c7nc(C)cnc7C)cc6)c5c4)cc3CC2)C1` [Example 63, 3-(4-{5-[(7S)-7-[(3S)-3-(Methoxymethyl)pyrrolidin-1-yl]-6,7,8,9-tetrahydro-5H-benzo[7]annulen-2-yl]-1H-pyrrolo[2,3-b]pyridin-3-yl}phenyl)-2,5-dimethylpyrazine], for which the IC50 against Axl and against p-AXL was less than 100 nM each time.

As for `Cc1ccc(C(C)(C)O)nc1-c1ccc(-c2n[nH]c3ncc(-c4ccc5c(c4)CC[C@@H](N4C6COCC4C6)CC5)cc23)cc1` [Example 192, 2-[5-Methyl-6-(4-{5-[(7S)-7-{3-oxa-6-azabicyclo[3.1.1]heptan-6-yl}-6,7,8,9-tetrahydro-5H-benzo[7]annulen-2-yl]-1H-pyrazolo[3,4-b]pyridin-3-yl}phenyl)pyridin-2-yl]propan-2-ol], the values for the IC50 at Axl and at p-AXL were less than 100 nM and 100 to 1000 nM, respectively.

On to `Cc1cc(C)c(-c2ccc(-c3n[nH]c4ncc(-c5ccc6c(c5)CC[C@@H](N5C7COCC5C7)CC6)cc34)cc2)cn1` [Example 195, 6-[(7S)-2-{3-[4-(4,6-Dimethylpyridin-3-yl)phenyl]-1H-pyrazolo[3,4-b]pyridin-5-yl}-6,7,8,9-tetrahydro-5H-benzo[7]annulen-7-yl]-3-oxa-6-azabicyclo[3.1.1]heptane], for which the values for the IC50 against Axl and against p-AXL were less than 100 nM and 100 to 1000 nM, respectively.

For the compound `Cc1ccc(C)c(-c2ccc(-c3n[nH]c4ncc(-c5ccc6c(c5)CC[C@@H](N5C7COCC5C7)CC6)cc34)cc2C)n1` [Example 185, 6-[(7S)-2-{3-[4-(3,6-Dimethylpyridin-2-yl)-3-methylphenyl]-1H-pyrazolo[3,4-b]pyridin-5-yl}-6,7,8,9-tetrahydro-5H-benzo[7]annulen-7-yl]-3-oxa-6-azabicyclo[3.1.1]heptane], the IC50 on Axl is less than 100 nM; on p-AXL it was 100 to 1000 nM.

As for `Cc1ccc(C)c(-c2ccc(-c3c[nH]c4ncc(-c5ccc6c(c5)CC[C@@H](N5C7COCC5C7)CC6)cc34)cc2)n1` [Example 137, 6-[(7S)-2-{3-[4-(3,6-Dimethylpyridin-2-yl)phenyl]-1H-pyrrolo[2,3-b]pyridin-5-yl}-6,7,8,9-tetrahydro-5H-benzo[7]annulen-7-yl]-3-oxa-6-azabicyclo[3.1.1]heptane], the IC50 against Axl and against p-AXL was less than 100 nM in each case.

As for `Cc1ccc(C)c(-c2ccc(-c3n[nH]c4ncc(-c5ccc6c(c5)CC[C@@H](N5C7COC[C@H]5C7)CC6)cc34)c(F)c2)n1` [Example 143, (1R)-6-[(7S)-2-{3-[4-(3,6-Dimethylpyridin-2-yl)-2-fluorophenyl]-1H-pyrazolo[3,4-b]pyridin-5-yl}-6,7,8,9-tetrahydro-5H-benzo[7]annulen-7-yl]-3-oxa-6-azabicyclo[3.1.1]heptane], the IC50 against Axl is less than 100 nM; against p-AXL, 100 to 1000 nM.

Regarding `CO[C@H]1C[C@@H](N[C@H]2CCc3ccc(-c4cnc5[nH]nc(-c6ccc(-c7ncccc7C)cn6)c5c4)cc3CC2)C1` [Example 108, (7S)-2-(3-{3-Methyl-[2,3′-bipyridin]-6′-yl}-1H-pyrazolo[3,4-b]pyridin-5-yl)-N-[cis-3-methoxycyclobutyl]-6,7,8,9-tetrahydro-5H-benzo[7]annulen-7-amine], the IC50 at Axl and on p-AXL was less than 100 nM throughout.

Turning to `Cc1cccc(F)c1-c1ccc(-c2c[nH]c3ncc(-c4ccc5c(c4)CC[C@@H](N4C6COCC4C6)CC5)cc23)cc1` [Example 84, 6-[(7S)-2-(3-{2′-Fluoro-6′-methyl-[1,1′-biphenyl]-4-yl}-1H-pyrrolo[2,3-b]pyridin-5-yl)-6,7,8,9-tetrahydro-5H-benzo[7]annulen-7-yl]-3-oxa-6-azabicyclo[3.1.1]heptane], the figures for the IC50 against Axl and against p-AXL were less than 100 nM and greater than 1000 nM, respectively.

In the case of `c1cc2c(c(-c3ccc(-c4c[nH]c5ncc(-c6ccc7c(c6)CC[C@@H](N6C8COCC6C8)CC7)cc45)cc3)n1)OCCO2` [Example 194, 6-[(7S)-2-[3-(4-{2H,3H-[1,4]Dioxino[2,3-c]pyridin-5-yl}phenyl)-1H-pyrrolo[2,3-b]pyridin-5-yl]-6,7,8,9-tetrahydro-5H-benzo[7]annulen-7-yl]-3-oxa-6-azabicyclo[3.1.1]heptane], the IC50 against Axl and at p-AXL was less than 100 nM in each case.

Regarding `Cc1cccnc1-c1cnc(-c2n[nH]c3ncc(-c4ccc5c(c4)CC[C@@H](N4C6COCC4C6)CC5)cc23)cn1` [Example 193, 6-[(7S)-2-{3-[5-(3-Methylpyridin-2-yl)pyrazin-2-yl]-1H-pyrazolo[3,4-b]pyridin-5-yl}-6,7,8,9-tetrahydro-5H-benzo[7]annulen-7-yl]-3-oxa-6-azabicyclo[3.1.1]heptane], the IC50 on Axl and at p-AXL was less than 100 nM in each case.

Turning to `Cc1cccnc1-c1nnc(-c2n[nH]c3ncc(-c4ccc5c(c4)CC[C@@H](N4C6COCC4C6)CC5)cc23)o1` [Example 25, 6-[(7S)-2-{3-[5-(3-Methylpyridin-2-yl)-1,3,4-oxadiazol-2-yl]-1H-pyrazolo[3,4-b]pyridin-5-yl}-6,7,8,9-tetrahydro-5H-benzo[7]annulen-7-yl]-3-oxa-6-azabicyclo[3.1.1]heptane], the IC50 against Axl and on p-AXL was less than 100 nM in each case.

On to `Cc1cccnc1-c1cnc(-c2c[nH]c3ncc(-c4ccc5c(c4)CC[C@@H](N4C6COCC4C6)CC5)cc23)cn1` [Example 184, 6-[(7S)-2-{3-[5-(3-Methylpyridin-2-yl)pyrazin-2-yl]-1H-pyrrolo[2,3-b]pyridin-5-yl}-6,7,8,9-tetrahydro-5H-benzo[7]annulen-7-yl]-3-oxa-6-azabicyclo[3.1.1]heptane], for which the IC50 against Axl and against p-AXL was less than 100 nM in each case.

For `Cc1ccc(C#N)c(-c2ccc(-c3c[nH]c4ncc(-c5ccc6c(c5)CC[C@@H](N5C7COCC5C7)CC6)cc34)cc2)n1` [Example 72, 6-Methyl-2-(4-{5-[(7S)-7-{3-oxa-6-azabicyclo[3.1.1]heptan-6-yl}-6,7,8,9-tetrahydro-5H-benzo[7]annulen-2-yl]-1H-pyrrolo[2,3-b]pyridin-3-yl}phenyl)pyridine-3-carbonitrile], the IC50 on Axl is less than 100 nM; on p-AXL, 100 to 1000 nM.

For the compound `C[C@@H]1CCCN1[C@@]1(C)CCc2ccc(-c3cnc4[nH]nc(-c5ccc(-c6ncccc6C#N)cc5)c4c3)cc2CC1` [Example 66, 2-(4-{5-[(7S)-7-Methyl-7-[(2R)-2-methylpyrrolidin-1-yl]-6,7,8,9-tetrahydro-5H-benzo[7]annulen-2-yl]-1H-pyrazolo[3,4-b]pyridin-3-yl}phenyl)pyridine-3-carbonitrile], the half-maximal inhibitory concentration (IC50) on Axl and against p-AXL was less than 100 nM each time.

Consider `Cc1cnc(-c2ccc(-c3n[nH]c4ncc(-c5ccc6c(c5)CC[C@@](C)(N5CCC[C@H]5C)CC6)cc34)cc2)c(C)n1` [Example 188, 3,5-Dimethyl-2-(4-{5-[(7S)-7-methyl-7-[(2R)-2-methylpyrrolidin-1-yl]-6,7,8,9-tetrahydro-5H-benzo[7]annulen-2-yl]-1H-pyrazolo[3,4-b]pyridin-3-yl}phenyl)pyrazine], for which the IC50 against Axl and against p-AXL was less than 100 nM each time.

For `Cc1cnc(C)c(-c2ccc(-c3n[nH]c4ncc(-c5ccc6c(c5)CC[C@@](C)(N5CCC[C@H]5C)CC6)cc34)cc2)n1` [Example 64, 2,5-Dimethyl-3-(4-{5-[(7S)-7-methyl-7-[(2R)-2-methylpyrrolidin-1-yl]-6,7,8,9-tetrahydro-5H-benzo[7]annulen-2-yl]-1H-pyrazolo[3,4-b]pyridin-3-yl}phenyl)pyrazine], the IC50 on Axl and on p-AXL was less than 100 nM throughout.
